From PMC7531004, “Discovery of gramicidin A analogues with altered activities by multidimensional screening of a one-bead-one-compound library” (Nature Communications, 2020) come the findings set out here.

Data set [1] can be described thus: H+/Na+ transport assay of bead-derived peptides (one-point).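 Note: relative to parent gramicidin A activity set to 1.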 The arrangement: key: relative activity; mean of two control wells = 1.00. In kind it is biochemical. The conditions noted are these: bead-derived peptide solution, EYPC/EYPG LUVs. The method, boiled down:
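Pyranine (1.0 mM)-loaded LUVs containing egg yolk phosphatidylglycerol were prepared by film hydration, sonication and extrusion, then mixed with diluted bead-derived peptide in 96-well format and vortexed 30 min at room temperature. Fluorescence was normalized between untreated LUVs (0%) and Triton X-100 lysis (100%).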

For data set [2] the following is noted: cell viability/%. The procedure, abridged:
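Peptide stocks diluted 250× in growth medium; P388 cells 1 × 10^4 cells/mL final; 37 °C, 5% CO2, 92 h. WST-1 + 1-methoxy PMS, 4 h, A415. Output: % viability.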

In data set [3] the test system is Streptococcus pyogenes SSI-9. Nature of the data set: Antibacterial activity assay of bead-derived peptides (three concentrations). The data set is classed as cell-based. Also noted: key: +++: inhibition by the 640-fold diluted peptide solution; ++: inhibition by the 160-fold diluted solution; +: inhibition by the 40-fold diluted solution; -: no inhibition. The following applies: S. pyogenes, bead-derived peptide solution, three concentrations. The method, boiled down: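 First, each peptide stock was diluted 4- and 16-fold in DMSO; next, the three solutions were mixed with S. pyogenes SSI-9 suspension (2 × 10^5 CFU) in cation-adjusted Mueller Hinton Broth plus 5% laked horse blood; finally, plates stood 18 h at 37 °C before checking for grown-cell precipitation.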

Where a SMILES comes first, the peptide text is derived from it. [ ]: non-standard residue; d: D form. The star is where a group is joined. NHCH2CH2OH = OCCN*; For = O=C*

Take `CC(C)C[C@@H](NC(=O)[C@H](C)NC(=O)[C@H](NC(=O)[C@H](C)NC(=O)CNC(=O)[C@@H](NC=O)C(C)C)[C@H](C)O)C(=O)N[C@H](C(=O)N[C@@H](C(=O)N[C@@H](Cc1c[nH]c2ccccc12)C(=O)N[C@@H](C(=O)N[C@@H](Cc1c[nH]c2ccccc12)C(=O)N[C@H](CC(C)C)C(=O)N[C@@H](Cc1c[nH]c2ccccc12)C(=O)N[C@@H](C(=O)N[C@@H](Cc1c[nH]c2ccccc12)C(=O)NCCO)C(C)C)[C@H](C)O)C(C)C)C(C)C` [compound 10338] (For-VGA[dT]A[dL]V[dV]W[dT]W[dL]W[dV]W-NHCH2CH2OH): in data set [1], the “H+/Na+ transport activity normalized against the value of 1 (1.00)” value (“H+/Na+ transport activity normalized” below) came out at 1.01. In data set [2], this compound showed a viability of 100%. Further, the antibacterial activity result in data set [3] is recorded as “-”.

On to `CC(C)C[C@@H](NC(=O)[C@H](Cc1c[nH]c2ccccc12)NC(=O)[C@@H](CC(C)C)NC(=O)[C@H](Cc1c[nH]c2ccccc12)NC(=O)[C@@H](CC(C)C)NC(=O)[C@H](Cc1c[nH]c2ccccc12)NC(=O)[C@H](NC(=O)[C@@H](NC(=O)[C@H](NC(=O)[C@H](C)NC(=O)[C@H](NC(=O)[C@H](C)NC(=O)CNC(=O)[C@@H](NC=O)C(C)C)C(C)C)C(C)C)C(C)C)[C@H](C)O)C(=O)N[C@@H](Cc1c[nH]c2ccccc12)C(=O)NCCO` [compound 10353] (For-VGA[dV]A[dV]V[dT]W[dL]W[dL]W[dL]W-NHCH2CH2OH), for which, in data set [1], the “H+/Na+ transport activity normalized” value is given as 1.02. In data set [2], this compound returned a viability of 100%. Moreover, the antibacterial activity result in data set [3] is “-”.

As to `CNC(=O)C[C@@H](NC(=O)[C@@H](NC(=O)[C@@H](CC(C)C)NC(=O)[C@H](C)NC(=O)[C@@H](CC(C)C)NC(=O)[C@H](C)NC(=O)CNC(=O)[C@@H](NC=O)C(C)C)C(C)C)C(=O)N[C@@H](Cc1c[nH]c2ccccc12)C(=O)N[C@H](CC(C)C)C(=O)N[C@@H](Cc1c[nH]c2ccccc12)C(=O)N[C@@H](C(=O)N[C@@H](Cc1c[nH]c2ccccc12)C(=O)N[C@@H](C(=O)N[C@@H](Cc1c[nH]c2ccccc12)C(=O)NCCO)C(C)C)C(C)C` [compound 10379] (For-VGA[dL]A[dL]V[dD](NHMe)W[dL]W[dV]W[dV]W-NHCH2CH2OH), the “H+/Na+ transport activity normalized” value in data set [1] worked out at 1.08. The compound further displayed a viability in data set [2] of 100%. In data set [3], the antibacterial activity entry is given as “-”.

With `CC(C)C[C@@H](NC(=O)[C@H](C)NC(=O)CNC(=O)[C@@H](NC=O)C(C)C)C(=O)N[C@@H](C)C(=O)N[C@@H](C(=O)N[C@H](C(=O)N[C@@H](C(=O)N[C@@H](Cc1c[nH]c2ccccc12)C(=O)N[C@H](CC(C)C)C(=O)N[C@@H](Cc1c[nH]c2ccccc12)C(=O)N[C@@H](C(=O)N[C@@H](Cc1c[nH]c2ccccc12)C(=O)N[C@@H](C(=O)N[C@@H](Cc1c[nH]c2ccccc12)C(=O)NCCO)C(C)C)C(C)C)[C@H](C)O)C(C)C)C(C)C` [compound 10400] (For-VGA[dL]A[dV]V[dT]W[dL]W[dV]W[dV]W-NHCH2CH2OH), the “H+/Na+ transport activity normalized” value in data set [1] was found to be 1.04. Moreover, the viability in data set [2] is 100%. For the same compound, in data set [3], the antibacterial activity entry is listed as “-”.

Consider `CC(C)C[C@@H](NC(=O)[C@H](Cc1c[nH]c2ccccc12)NC(=O)[C@H](NC(=O)[C@H](Cc1c[nH]c2ccccc12)NC(=O)[C@H](NC(=O)[C@@H](NC(=O)[C@H](NC(=O)[C@H](C)NC(=O)[C@H](NC(=O)[C@H](C)NC(=O)CNC(=O)[C@@H](NC=O)C(C)C)C(C)C)C(C)C)C(C)C)[C@H](C)O)C(C)C)C(=O)N[C@@H](Cc1c[nH]c2ccccc12)C(=O)N[C@@H](C(=O)N[C@@H](Cc1c[nH]c2ccccc12)C(=O)NCCO)C(C)C` [compound 10506] (For-VGA[dV]A[dV]V[dT]W[dV]W[dL]W[dV]W-NHCH2CH2OH), for which, in data set [1], the “H+/Na+ transport activity normalized” value is reported as 1.18. In data set [2], this compound gave a viability of 91.3%. Besides, the antibacterial activity result in data set [3] was “-”.

As for `CC(C)C[C@@H](NC(=O)[C@H](C)NC(=O)CNC(=O)[C@@H](NC=O)C(C)C)C(=O)N[C@@H](C)C(=O)N[C@H](CC(C)C)C(=O)N[C@H](C(=O)N[C@@H](C(=O)N[C@@H](Cc1c[nH]c2ccccc12)C(=O)N[C@@H](C(=O)N[C@@H](Cc1c[nH]c2ccccc12)C(=O)N[C@@H](C(=O)N[C@@H](Cc1c[nH]c2ccccc12)C(=O)N[C@@H](C(=O)N[C@@H](Cc1c[nH]c2ccccc12)C(=O)NCCO)C(C)C)C(C)C)C(C)C)[C@H](C)O)C(C)C` [compound 10609] (For-VGA[dL]A[dL]V[dT]W[dV]W[dV]W[dV]W-NHCH2CH2OH), the “H+/Na+ transport activity normalized” value in data set [1] is 1.15. The viability in data set [2] amounted to 79.4%. Also, the antibacterial activity result in data set [3] is “-”.

Consider `CNC(=O)C[C@@H](NC(=O)[C@H](C)NC(=O)CNC(=O)[C@@H](NC=O)C(C)C)C(=O)N[C@@H](C)C(=O)N[C@@H](C(=O)N[C@H](C(=O)N[C@@H](C(=O)N[C@@H](Cc1c[nH]c2ccccc12)C(=O)N[C@H](CC(C)C)C(=O)N[C@@H](Cc1c[nH]c2ccccc12)C(=O)N[C@H](CC(C)C)C(=O)N[C@@H](Cc1c[nH]c2ccccc12)C(=O)N[C@H](CC(C)C)C(=O)N[C@@H](Cc1c[nH]c2ccccc12)C(=O)NCCO)C(C)C)C(C)C)C(C)C` [compound 10673] (For-VGA[dD](NHMe)A[dV]V[dV]W[dL]W[dL]W[dL]W-NHCH2CH2OH), for which, in data set [1], the “H+/Na+ transport activity normalized” value was 1.01. Besides, the viability in data set [2] turned out to be 97.7%. Also, in data set [3], the antibacterial activity entry is listed as “-”.

Regarding `CC(C)C[C@@H](NC(=O)[C@H](C)NC(=O)CNC(=O)[C@@H](NC=O)C(C)C)C(=O)N[C@@H](C)C(=O)N[C@@H](C(=O)N[C@H](C(=O)N[C@@H](C(=O)N[C@@H](Cc1c[nH]c2ccccc12)C(=O)N[C@@H](C(=O)N[C@@H](Cc1c[nH]c2ccccc12)C(=O)N[C@H](CC(C)C)C(=O)N[C@@H](Cc1c[nH]c2ccccc12)C(=O)N[C@H](CC(C)C)C(=O)N[C@@H](Cc1c[nH]c2ccccc12)C(=O)NCCO)[C@H](C)O)C(C)C)C(C)C)C(C)C` [compound 10674] (For-VGA[dL]A[dV]V[dV]W[dT]W[dL]W[dL]W-NHCH2CH2OH), the “H+/Na+ transport activity normalized” value in data set [1] was 1.08. In data set [2], the viability is 87.3%. In addition, the antibacterial activity entry in data set [3] is on record as “+”.

Regarding `CC(C)C[C@@H](NC(=O)[C@H](Cc1c[nH]c2ccccc12)NC(=O)[C@H](NC(=O)[C@H](Cc1c[nH]c2ccccc12)NC(=O)[C@@H](CC(C)C)NC(=O)[C@H](Cc1c[nH]c2ccccc12)NC(=O)[C@@H](CC(C)C)NC(=O)[C@@H](NC(=O)[C@H](NC(=O)[C@H](C)NC(=O)[C@H](NC(=O)[C@H](C)NC(=O)CNC(=O)[C@@H](NC=O)C(C)C)C(C)C)[C@H](C)O)C(C)C)C(C)C)C(=O)N[C@@H](Cc1c[nH]c2ccccc12)C(=O)NCCO` [compound 10686] (For-VGA[dV]A[dT]V[dL]W[dL]W[dV]W[dL]W-NHCH2CH2OH), the “H+/Na+ transport activity normalized” value in data set [1] is given as 1.05. This compound also gave a viability in data set [2] of 100%. In data set [3], the antibacterial activity result is listed as “-”.

Take `CC(C)C[C@@H](NC(=O)[C@H](C)NC(=O)[C@H](NC(=O)[C@H](C)NC(=O)CNC(=O)[C@@H](NC=O)C(C)C)C(C)C)C(=O)N[C@H](C(=O)N[C@H](CC(C)C)C(=O)N[C@@H](Cc1c[nH]c2ccccc12)C(=O)N[C@@H](C(=O)N[C@@H](Cc1c[nH]c2ccccc12)C(=O)N[C@@H](C(=O)N[C@@H](Cc1c[nH]c2ccccc12)C(=O)N[C@H](CC(C)C)C(=O)N[C@@H](Cc1c[nH]c2ccccc12)C(=O)NCCO)C(C)C)C(C)C)C(C)C` [compound 11126] (For-VGA[dV]A[dL]V[dL]W[dV]W[dV]W[dL]W-NHCH2CH2OH): the “H+/Na+ transport activity normalized” value in data set [1] is given as 1.07. Further, the viability in data set [2] is 8.7%. The antibacterial activity result in data set [3] is “-”.

For `CNC(=O)C[C@@H](NC(=O)[C@H](C)NC(=O)CNC(=O)[C@@H](NC=O)C(C)C)C(=O)N[C@@H](C)C(=O)N[C@@H](C(=O)N[C@H](C(=O)N[C@@H](C(=O)N[C@@H](Cc1c[nH]c2ccccc12)C(=O)N[C@H](CC(C)C)C(=O)N[C@@H](Cc1c[nH]c2ccccc12)C(=O)N[C@H](CC(C)C)C(=O)N[C@@H](Cc1c[nH]c2ccccc12)C(=O)N[C@@H](C(=O)N[C@@H](Cc1c[nH]c2ccccc12)C(=O)NCCO)C(C)C)C(C)C)C(C)C)C(C)C` [compound 11200] (For-VGA[dD](NHMe)A[dV]V[dV]W[dL]W[dL]W[dV]W-NHCH2CH2OH), in data set [1], the “H+/Na+ transport activity normalized” value is recorded as 1.06. In data set [2], this compound had a viability of 66%. Further, in data set [3], the antibacterial activity result is given as “-”.

Turning to `CC(C)C[C@@H](NC(=O)[C@H](C)NC(=O)[C@H](NC(=O)[C@H](C)NC(=O)CNC(=O)[C@@H](NC=O)C(C)C)C(C)C)C(=O)N[C@H](C(=O)N[C@@H](C(=O)N[C@@H](Cc1c[nH]c2ccccc12)C(=O)N[C@@H](C(=O)N[C@@H](Cc1c[nH]c2ccccc12)C(=O)N[C@H](CC(C)C)C(=O)N[C@@H](Cc1c[nH]c2ccccc12)C(=O)N[C@@H](C(=O)N[C@@H](Cc1c[nH]c2ccccc12)C(=O)NCCO)C(C)C)C(C)C)C(C)C)C(C)C` [compound 11268] (For-VGA[dV]A[dL]V[dV]W[dV]W[dL]W[dV]W-NHCH2CH2OH), the “H+/Na+ transport activity normalized” value in data set [1] is 1.06. The compound further came in with a viability in data set [2] of 100%. The antibacterial activity entry in data set [3] is recorded as “+”.

A word on the viability: it is a read-out of living cells in per cent, often relative to untreated cells.
